Experiments:
Type in all cases: cell-based
[1] = tested on: HOP-92; experiment: NCI60 one-dose screen; details: Homo sapiens, HOP-92, read-out: Growth percent
[2] = tested on: SN12C; experiment: NCI60 one-dose screen; details: Homo sapiens, read-out: Growth percent
[3] = tested on: SK-MEL-2; experiment: NCI60 one-dose screen; details: Homo sapiens, SK-MEL-2, read-out: Growth percent
[4] = tested on: U251; experiment: NCI60 one-dose screen; details: Homo sapiens, U-251, read-out: Growth percent
[5] = tested on: NCI/ADR-RES; experiment: NCI60 five-dose screen; details: Homo sapiens
[6] = tested on: ACHN; experiment: NCI60 one-dose screen; details: Homo sapiens, read-out: Growth percent
[7] = tested on: SF-268; experiment: NCI60 one-dose screen; details: Homo sapiens, SF-268, read-out: Growth percent
[8] = tested on: OVCAR-4; experiment: NCI60 five-dose screen; details: Homo sapiens, OVCAR-4
[9] = tested on: TK-10; experiment: NCI60 five-dose screen; details: Homo sapiens, TK-10
[10] = tested on: NCI-H226; experiment: NCI60 one-dose screen; details: Homo sapiens, NCI-H226, read-out: Growth percent
[11] = tested on: MDA-MB-435; experiment: NCI60 five-dose screen; details: Homo sapiens, MDA-MB-435
[12] = tested on: A498; experiment: NCI60 five-dose screen; details: Homo sapiens, A498
[13] = tested on: K-562; experiment: NCI60 one-dose screen; details: Homo sapiens, K562, read-out: Growth percent
[14] = tested on: EKVX; experiment: NCI60 five-dose screen; details: Homo sapiens
[15] = tested on: MOLT-4; experiment: NCI60 one-dose screen; details: Homo sapiens, MOLT-4, read-out: Growth percent
[16] = tested on: HT29; experiment: NCI60 five-dose screen; details: Homo sapiens, HT-29
[17] = tested on: OVCAR-3; experiment: NCI60 five-dose screen; details: Homo sapiens, OVCAR-3
[18] = tested on: SF-295; experiment: NCI60 five-dose screen; details: Homo sapiens, SF-295
[19] = tested on: HT29; experiment: NCI60 one-dose screen; details: Homo sapiens, HT-29, read-out: Growth percent
[20] = tested on: SK-OV-3; experiment: NCI60 one-dose screen; details: Homo sapiens, SK-OV-3, read-out: Growth percent
[21] = tested on: SR; experiment: NCI60 one-dose screen; details: Homo sapiens, read-out: Growth percent
[22] = tested on: SK-OV-3; experiment: NCI60 five-dose screen; details: Homo sapiens, SK-OV-3
[23] = tested on: 786-0; experiment: NCI60 one-dose screen; details: Homo sapiens, 786-0, read-out: Growth percent
[24] = tested on: PC-3; experiment: NCI60 five-dose screen; details: Homo sapiens, PC-3
[25] = tested on: EKVX; experiment: NCI60 one-dose screen; details: Homo sapiens, read-out: Growth percent
[26] = tested on: NCI-H460; experiment: NCI60 five-dose screen; details: Homo sapiens, NCI-H460
[27] = tested on: A498; experiment: NCI60 one-dose screen; details: Homo sapiens, A498, read-out: Growth percent
[28] = tested on: COLO 205; experiment: NCI60 five-dose screen; details: Homo sapiens, COLO 205
[29] = tested on: A549/ATCC; experiment: NCI60 five-dose screen; details: Homo sapiens, A549
[30] = tested on: BT-549; experiment: NCI60 five-dose screen; details: Homo sapiens, BT-549
[31] = tested on: HS 578T; experiment: NCI60 one-dose screen; details: Homo sapiens, Hs-578T, read-out: Growth percent
[32] = tested on: K-562; experiment: NCI60 five-dose screen; details: Homo sapiens, K562
[33] = tested on: UACC-62; experiment: NCI60 five-dose screen; details: Homo sapiens, UACC-62
[34] = tested on: HOP-62; experiment: NCI60 five-dose screen; details: Homo sapiens, HOP-62
[35] = tested on: RPMI-8226; experiment: NCI60 one-dose screen; details: Homo sapiens, RPMI-8226, read-out: Growth percent
[36] = tested on: U251; experiment: NCI60 five-dose screen; details: Homo sapiens, U-251
[37] = tested on: HOP-92; experiment: NCI60 five-dose screen; details: Homo sapiens, HOP-92
[38] = tested on: Renal Cancer panel; experiment: NCI60 five-dose screen, panel mean; details: Homo sapiens, read-out: Mean GI50
[39] = tested on: PC-3; experiment: NCI60 one-dose screen; details: Homo sapiens, PC-3, read-out: Growth percent
[40] = tested on: DU-145; experiment: NCI60 one-dose screen; details: Homo sapiens, DU-145, read-out: Growth percent
[41] = tested on: UACC-62; experiment: NCI60 one-dose screen; details: Homo sapiens, UACC-62, read-out: Growth percent
[42] = tested on: MALME-3M; experiment: NCI60 one-dose screen; details: Homo sapiens, Malme-3M, read-out: Growth percent
[43] = tested on: KM12; experiment: NCI60 one-dose screen; details: Homo sapiens, KM12, read-out: Growth percent
[44] = tested on: OVCAR-8; experiment: NCI60 one-dose screen; details: Homo sapiens, OVCAR-8, read-out: Growth percent
[45] = tested on: SK-MEL-28; experiment: NCI60 one-dose screen; details: Homo sapiens, SK-MEL-28, read-out: Growth percent
[46] = tested on: HL-60(TB); experiment: NCI60 five-dose screen; details: Homo sapiens, HL-60
[47] = tested on: SF-539; experiment: NCI60 one-dose screen; details: Homo sapiens, SF-539, read-out: Growth percent

Structure (SMILES): CC[C@]12C=CCN3CC[C@@]4(c5ccc(OC)cc5N(C)[C@H]4[C@@](O)(C(=O)OC)[C@@H]1OC(=O)CCC[P+](c1ccc(F)cc1)(c1ccc(F)cc1)c1ccc(F)cc1)[C@@H]32 [9c]
- activity at 10 µM [1]: -6.2%
- activity at 10 µM [2]: 16.6%
- activity at 10 µM [3]: -46.9%
- activity at 10 µM [4]: 18.5%
- GI50 [5]: > 48.5 µM
- activity at 10 µM [6]: 101%
- activity at 10 µM [7]: 42.3%
- GI50 [8]: 16.2 µM
- GI50 [9]: 22.2 µM
- activity at 10 µM [10]: 46.9%
- GI50 [11]: 8.14 µM
- GI50 [12]: > 48.5 µM
- activity at 10 µM [13]: 21.6%
- GI50 [14]: 19.4 µM
- activity at 10 µM [15]: 37.1%
- GI50 [16]: 12.5 µM
- GI50 [17]: 6.47 µM
- GI50 [18]: > 48.5 µM
- activity at 10 µM [19]: 15.7%
- activity at 10 µM [20]: 54.7%
- activity at 10 µM [21]: 42.6%
- GI50 [22]: 15.8 µM
- activity at 10 µM [23]: 80.9%
- GI50 [24]: 12.6 µM
- activity at 10 µM [25]: 58.1%
- GI50 [26]: 17 µM
- activity at 10 µM [27]: 101%
- GI50 [28]: 4.98 µM
- GI50 [29]: 21.5 µM
- GI50 [30]: 8.13 µM
- activity at 10 µM [31]: 19.1%
- GI50 [32]: 9.83 µM
- GI50 [33]: 6.05 µM
- GI50 [34]: 20.5 µM
- activity at 10 µM [35]: 24.4%
- GI50 [36]: 9.36 µM
- GI50 [37]: 5.44 µM
- GI50 [38]: 34.2 µM
- activity at 10 µM [39]: 16.7%
- activity at 10 µM [40]: 47.7%
- activity at 10 µM [41]: -59.5%
- activity at 10 µM [42]: -32.6%
- activity at 10 µM [43]: 21.3%
- activity at 10 µM [44]: 28%
- activity at 10 µM [45]: -24.1%
- GI50 [46]: 1.77 µM
- activity at 10 µM [47]: 24.2%

Structure (SMILES): CC[C@]12C=CCN3CC[C@@]4(c5ccc(OC)cc5N(C)[C@H]4[C@@](O)(C(=O)OC)[C@@H]1OC(=O)CCC[P+](C1CCCCC1)(C1CCCCC1)C1CCCCC1)[C@@H]32 [9d]
- activity at 10 µM [1]: -43.8%
- activity at 10 µM [2]: -40.5%
- activity at 10 µM [3]: -84.9%
- activity at 10 µM [4]: -82.5%
- GI50 [5]: 35.6 µM
- activity at 10 µM [6]: 32%
- activity at 10 µM [7]: -54.1%
- GI50 [8]: 2.39 µM
- GI50 [9]: 2.73 µM
- activity at 10 µM [10]: -20%
- GI50 [11]: 1.83 µM
- GI50 [12]: 12.4 µM
- activity at 10 µM [13]: 3.31%
- GI50 [14]: 3.09 µM
- activity at 10 µM [15]: 2.35%
- GI50 [16]: 1.88 µM
- GI50 [17]: 1.74 µM
- GI50 [18]: 4.41 µM
- activity at 10 µM [19]: -56.7%
- activity at 10 µM [20]: -7.72%
- activity at 10 µM [21]: 29.1%
- GI50 [22]: 2.59 µM
- activity at 10 µM [23]: -16.2%
- GI50 [24]: 1.71 µM
- activity at 10 µM [25]: 15.4%
- GI50 [26]: 2.77 µM
- activity at 10 µM [27]: 21.8%
- GI50 [28]: 0.43 µM
- GI50 [29]: 3.46 µM
- GI50 [30]: 2.44 µM
- activity at 10 µM [31]: -33%
- GI50 [32]: 1.32 µM
- GI50 [33]: 1.41 µM
- GI50 [34]: 3.68 µM
- activity at 10 µM [35]: -43.5%
- GI50 [36]: 0.746 µM
- GI50 [37]: 1.01 µM
- GI50 [38]: 7.93 µM
- activity at 10 µM [39]: -12%
- activity at 10 µM [40]: 15.7%
- activity at 10 µM [41]: -97.3%
- activity at 10 µM [42]: -96.1%
- activity at 10 µM [43]: -63.4%
- activity at 10 µM [44]: 1.19%
- activity at 10 µM [45]: -85.9%
- GI50 [46]: 0.322 µM
- activity at 10 µM [47]: -86.5%

Reference: PMC12028158, “Synthesis and In Vitro Evaluation of the Anticancer Effect of Novel Phosphonium Vindoline Derivatives” (International Journal of Molecular Sciences, 2025)
